Measurements published in patent US5767139A, “Indoles which have steroid 5-α reductase inhibitory activity” (Pfizer, Inc., priority 1992, dated 1998).

What follows are compounds tested on mice (assay: Toxicity Study, oral administration to mice). Conditions: up to a dose of 1000 mg/kg, throughout the duration of the study.
Format: in vivo
`CC(C)Cc1ccc(C2(C)Oc3ccc(C(=O)c4cn(CCCC(=O)O)c5ccccc45)cc3O2)cc1` (single isomer, unassigned; (-)) [Example 4, (-)-4-[3-([2-methyl-2-(4-[2-methylpropyl]phenyl)-1,3-benzodioxolan-5-yl]carbonyl)indol-1-yl]butanoic acid] was tested, and the appearance and behaviour was “normal appearance and behaviour”.

Each compound was assayed against steroid 5α-reductase (assay: in vitro steroid 5α-reductase inhibitory activity using ventral prostate tissue from male rats). Conditions: rat ventral prostate particulate; [3H]-testosterone substrate, pH 6.5, 37° C., 30 minutes.
Format: biochemical
Source text: The compounds of the formula (I) may be tested in vitro for steroid 5α-reductase inhibitory activity using prostate tissue from rats or humans as follows:
(i) The compounds of the formula (I) may be tested for their potency in inhibiting rat steroid 5α-reductase using ventral prostate tissue from male rats. In determining inhibitory potency against rat prostatic 5α-reductase the following procedure was employed:
Rat prostates were minced into small pieces. The tissue was homogenised in Buffer A (20 mM sodium phosphate, pH 6.5, buffer containing 0.32M sucrose and 1 mM dithiothreitol) with a Brinkman Polytron (Kinematica, Luzern, GmBH), and then homogenised with a motor driven (1000 rpm) Potter Elvehjem (teflon-to-glass) homogeniser. Prostate particles were obtained by centrifugation at 105,000 G for 60 minutes. The pellet was washed in 4 volumes of Buffer A and recentrifuged at 105,000 G. The resulting pellet was dispersed in Buffer A (1 ml per g of prostate tissue originally used) with a motor driven Potter Elvehjem homogeniser as described above. The particulate suspension was stored as 1 ml samples at -70° C.
The following components, dissolved in Buffer B (40 mM sodium phosphate buffer, pH 6.5), were added to test tubes: 500 μl of [^3 H]-testosterone (1 μCi, 1 nmol; Du Pont, NEN Research Products, Stevenage, U.K.), 100 μl of 0.5 mM NADPH, a compound of the formula (I) dissolved in 5 μl of dimethyl sulphoxide, and Buffer B to give a final reaction volume of 1 ml. The mixture was warmed to 37° C. and the reaction started by addition of an aliquot of prostate particulate suspension. The reaction mixture was incubated at 37° C. for 30 minutes and then quenched by addition with vigorous mixing of 2 ml of ethyl acetate containing 20 μg each of testosterone and 5α-dihydrotestosterone as carriers. The aqueous and organic layers were separated by centrifugation at 2000 G for 10 minutes. The organic layer was transferred to a second test tube and evaporated to dryness under nitrogen. The residue was dissolved in 50-80 μl of absolute ethanol and spotted onto a silica gel 60 F254 TLC plate (E. Merck, Darmstadt, Germany) and developed in chloroform:acetone (185:15).
The radiochemical content in the bands of the substrate (testosterone) and the product (5α-dihydrotestosterone) were determined with a RITA Radio TLC Analyser (Raytest Instruments Ltd., Sheffield, U.K.). The percent of recovered radiolabel converted to 5α-dihydrotestosterone was calculated and used to determine enzyme activity. All incubations were conducted so that no more than 15% of substrate (testosterone) was converted to product.
The experimentally obtained data for a range of inhibitor concentrations was computer fitted to a sigmoidal dose-response curve and concentrations of compound giving 50% inhibition of 5α-reductase activity (IC50 's) were calculated using a SIGFIT program (De Lean, A., Munson, P. J. and Rodbard, D., American Journal of Physiology, 235, E97 (1978)).
A selection of compounds of the formula (I) was tested in vitro for steroid 5α-reductase inhibitory activity using ventral prostate tissue from male rats according to the procedure outlined on pages 35 to 37 of the description.
For `CC(C)Cc1ccc(C2(C)Oc3ccc(C(=O)c4cn(CCCC(=O)O)c5ccccc45)cc3O2)cc1` (racemic) [Example 2, 4-[3-([2-methyl-2-(4-[2-methylpropyl]phenyl)-1,3-benzodioxolan-5-yl]carbonyl)indol-1-yl]butanoic acid], the IC50 was 11.4 nM. `CC(C)Cc1ccc(C2(C)Oc3ccc(C(=O)c4cn(CCCC(=O)O)c5ccccc45)cc3O2)cc1` (single isomer, unassigned; (-)) [Example 4, (-)-4-[3-([2-methyl-2-(4-[2-methylpropyl]phenyl)-1,3-benzodioxolan-5-yl]carbonyl)indol-1-yl]butanoic acid] was tested, and the IC50 was 10.3 nM. For `O=C(O)CCCn1cc(C(=O)c2ccc3c(c2)OC(c2ccccc2)(c2ccccc2)O3)c2ccccc21` [Example 1], the IC50 was 2.7 nM. `CCCc1ccc(C2(c3ccc(CCC)cc3)Oc3ccc(C(=O)c4cn(CCCC(=O)O)c5ccccc45)cc3O2)cc1` [Example 5] gave an IC50 of 33.7 nM. `O=C(O)CCCn1cc(C(=O)c2ccc3c(c2)OC(c2ccc(Cl)cc2)(c2ccc(Cl)cc2)O3)c2ccccc21` [Example 6] showed an IC50 of 15.6 nM. `O=C(O)CCCn1cc(C(=O)c2ccc3c(c2)OC(c2ccc(F)cc2)(c2ccc(F)cc2)O3)c2ccccc21` [Example 7] gave an IC50 of 10.7 nM. For `CCCCC1(c2ccc(CCC)cc2)Oc2ccc(C(=O)c3cn(CCCC(=O)O)c4ccccc34)cc2O1` (centres unmarked) [Example 8], the IC50 was 2.9 nM. Work on `CC1(c2ccc(OCc3ccccc3)cc2)Oc2ccc(C(=O)c3cn(CCCC(=O)O)c4ccccc34)cc2O1` (centres unmarked) [Example 9] yielded an IC50 of 67.5 nM. For `O=C(O)CCCn1cc(C(=O)c2ccc3c(c2)OC2(CCCc4ccccc42)O3)c2ccccc21` (centres unmarked) [Example 10], the IC50 was 7.91 nM. `CC1(c2ccccc2)Oc2ccc(C(=O)c3cn(CCCC(=O)O)c4ccccc34)cc2O1` (centres unmarked) [Example 14] showed an IC50 of 21.1 nM. With `O=C(O)CCCn1cc(C(=O)c2ccc3c(c2)OC(c2cccs2)(c2cccs2)O3)c2ccccc21` [Example 15] the IC50 was 5.29 nM. `CC1(C2CCCCC2)Oc2ccc(C(=O)c3cn(CCCC(=O)O)c4ccccc34)cc2O1` (centres unmarked) [Example 19] gave an IC50 of 11 nM. `CCCc1ccc(C2(CC)Oc3ccc(C(=O)c4cn(CCCC(=O)O)c5ccccc45)cc3O2)cc1` (centres unmarked) [Example 27] showed an IC50 of 1.41 nM. For `COc1ccc(C2(C)Oc3ccc(C(=O)c4cn(CCCC(=O)O)c5ccccc45)cc3O2)cc1` (centres unmarked) [Example 29], the IC50 was 3.67 nM. Work on `O=C(O)CCCn1cc(C(=O)c2ccc3c(c2)OC2(CCC(c4ccccc4)C2)O3)c2ccccc21` (centres unmarked) [Example 31] yielded an IC50 of 5.56 nM. Work on `O=C(O)CCCCn1cc(C(=O)c2ccc3c(c2)OC(c2ccccc2)(c2ccccc2)O3)c2ccccc21` [Example 34] yielded an IC50 of 264 nM. In the case of `O=C(O)CCCn1cc(C(=O)Cc2ccc3c(c2)OC(c2ccccc2)(c2ccccc2)O3)c2ccccc21` [Example 35], the IC50 is reported as 42.6 nM. Work on `CC(C)Cc1ccc(C2(C)Oc3ccc(CC(=O)c4cn(CCCC(=O)O)c5ccccc45)cc3O2)cc1` (centres unmarked) [Example 36] yielded an IC50 of 251 nM. `O=C(O)CCCn1cc(C(=O)Cc2ccc3c(c2)OC(c2ccc(Cl)cc2)(c2ccc(Cl)cc2)O3)c2ccccc21` [Example 37] gave an IC50 of 100 nM. With `Cc1c(C(=O)c2ccc3c(c2)OC(c2ccccc2)(c2ccccc2)O3)c2ccccc2n1CCCC(=O)O` [Example 39] the IC50 was 270 nM. `Cc1c(C(=O)c2ccc3c(c2)OC(C)(c2ccc(CC(C)C)cc2)O3)c2ccccc2n1CCCC(=O)O` (centres unmarked) [Example 40] gave an IC50 of 260 nM. `CCCc1ccc(C2(c3ccc(OC)cc3)Oc3ccc(C(=O)c4cn(CCCC(=O)O)c5ccccc45)cc3O2)cc1` (centres unmarked) [Example 45] gave an IC50 of 7.84 nM.
